# Data as given in a melting point compilation (Tetko et al.; mined from patent text by program, amines drawn as free bases though some values may be those of a salt).
row,Compound,melting point [°C]
1,CCC12CCC3=C(CCc4cc(O)ccc43)C1=CCC2=O (centres undefined),153 to 156
2,O=C(O)Cn1cccc1Sc1ccccc1,101 to 102
3,COc1n[nH]cc1-c1ccccc1,150
4,O=Cc1csc(NCc2ccccc2)n1,162 to 165
5,CCCc1ccc(S(=O)(=O)c2ccc(F)cc2)cc1S(=O)(=O)NCCc1cccnc1,111 to 113
6,O=C(C(c1ccc(Cl)cc1)c1c(Cl)cc(-n2ncc(=O)[nH]c2=O)cc1Cl)N1CCCC1 (centres undefined),154
7,CCN(CC)S(=O)(=O)c1ccccc1S(N)(=O)=O,156 to 159
8,CCOC(=O)C1(Cc2ccccc2)CC(=O)N(c2ccnc(NC(=O)NCc3ccccn3)c2)C1 (centres undefined),158 to 160
9,O=[N+]([O-])c1cccc(-n2cnnc2C(F)(F)F)c1,142
10,CC(C)(C)OC(=O)COC1CCN(C(=O)[C@H](Cc2ccc(OC(C)(C)C)cc2)NC(=O)c2ccc(C#N)cn2)CC1,122 to 123
11,COC(=O)c1cc(C)nc(Nc2ccc(C(C)C)cc2Br)n1,75 to 76
12,O=C(Nc1ccccc1)OCC1(COC(=O)Nc2ccccc2)CS(=O)(=O)c2ccccc2C1=O,72 to 78
13,NCC(=O)OCc1ccc([N+](=O)[O-])cc1,45 to 50
14,CCOC(=O)C=Cc1ccc(C(=O)Cc2ccccc2)cc1,110 to 111
15,Cc1ncn(-c2ccc(C#N)c(F)c2)n1,133 to 134
16,CN(C)c1cccc(OCC(=O)C=P(c2ccccc2)(c2ccccc2)c2ccccc2)c1,110 to 115
17,CCOC(=O)c1c(C(F)(F)F)nc(C(F)(F)F)c(C(=O)OC)c1N=[N+]=[N-],46 to 47
18,CC(=O)Cc1ccc(-n2ccnc2)cc1,71.5 to 72.5
19,COC1=CC(=O)N([C@@H]2c3cc(C#N)ccc3OC(C)(C)[C@H]2O)C1 (relative stereo),225
20,CCc1nc2c(cnn2CC)c(NC2CCOCC2)c1CNC(=O)c1cccc(C(=O)NCc2ccc(C)c(-c3cccc(CN4CCN(C)CC4)c3)c2)c1,121 to 124
21,Cn1c(C(F)(F)F)c(C#N)c2cc(Cl)ccc21,166 to 168
22,N#Cc1ccc(NC(=O)c2cc3ccccc3cc2O)c(OC(F)(F)F)c1,248
23,CN(C)C(=O)c1ccccc1Sc1c[nH]c2ccccc12,194 to 196

row,Compound,melting point [°C]
1,CC(Oc1ccc(Oc2ncc(Cl)cc2F)cc1)C(=O)Nc1ccc(OC(F)(F)F)cc1 (centres undefined),92 to 93.5
2,Clc1ccc2nc3c(nc2c1)-c1cccc2cccc-3c12,224 to 225
3,COC(=O)C(NC(=O)c1c(F)cccc1F)c1ccc(Br)s1 (centres undefined),123 to 124
4,Cc1nc2c(C#N)ncn2c(Cl)c1-c1c(F)cc(F)cc1F,183
5,Cc1[nH]c2ccc(C3=NNC(=O)CC3)cc2c1-c1ccccc1,297 to 299
6,O=C(O)CCC/C=C\[C@@H]1C[C@@H](NS(=O)(=O)c2ccc(Cl)cc2)CN1Cc1ccccc1,87 to 91
7,CN(C)N1CSC(=Cc2cc(C(C)(C)C)c(O)c(C(C)(C)C)c2)C1=O,138 to 141
8,CC(C)OC(=O)c1cc(N)ccc1Cl,50.5 to 52
9,COc1cc(Cl)c(CCNCC(O)c2ccccc2)cc1OC (centres undefined),110 to 113
10,CCc1[nH]n(C2CCCC2)c2nc(Cc3ccncc3)nc(=O)c1-2,162 to 164
11,COC(=O)C1=C(C)Nc2c(c(C)nn2C)C1c1cccc([N+](=O)[O-])c1 (centres undefined),163 to 166
12,O=C(O)C(c1ccc(Cl)cc1)C1CC1 (centres undefined),95 to 96
13,CCn1ncc2c(NCc3ccc(OC)cc3)c3cc(OC)ccc3nc21,263 to 265
14,CC1CNc2c(cccc2[N+](=O)[O-])C(=O)N1Cc1ccccc1 (centres undefined),125
15,CNC(=O)c1cc2c(Oc3ccc(C(F)(F)F)cc3)cnc(Cl)c2s1,178 to 179
16,CCc1nc(OC)c(NC(=O)N2CCN(c3cc(C)cc(C)c3)CC2)cc1C(=O)Nc1cc(CO)cc(Nc2c3ccccc3nc3ccccc23)c1,178 to 180
17,CCCOC(OCCC)P(=O)(O)CCCN,223 to 225
18,CCCCOc1ccc(S(C)(=O)=O)cc1-c1nc2c(CC)nn(Cc3ccccn3)c2c(=O)[nH]1,189 to 191
19,CC(=O)SC(CC(=O)c1ccccc1)C(=O)O (centres undefined),90
20,COc1ccccc1CCc1c(CO)ccc(OC)c1OC,108 to 109
21,COc1cc(C=CC(=O)Nc2c(OC)nc3c(C)cc(C)cc3c2-c2ccccc2Cl)cc(OC)c1OC(C)=O,230 to 231
22,Cc1cc(C(C)(C)C)c(O)c(S(=O)(=O)Nc2ccc([N+](=O)[O-])cc2Cl)c1,239 to 243
23,NNC(=O)c1ccnc2[nH]ccc12,239 to 240

row,Compound,melting point [°C]
1,C=CCNc1ccc(N(CC=C)CC=C)cc1[N+](=O)[O-],131 to 140
2,COc1ccc(C=CC(=O)N2CC(CCl)c3c2cc(N)c2ccccc32)cc1 (centres undefined),114 to 116
3,O[C@@H]1CN(Cc2ccccc2)C[C@H]1Oc1ccccc1 (relative stereo),88.5 to 90
4,Cc1ccccc1C(=O)NCN1CCN(c2ccccc2C#N)CC1,62 to 64
5,Cc1cc([N+](=O)[O-])ccc1N=C1C2CC3CC(C2)CC(C3)N1CC(C)C,101 to 102
6,CCCC(=O)N(Cc1ccc(-c2ccccc2-c2nc(=O)o[nH]2)cc1)c1sc(C)cc1C(=O)OC,156 to 157
7,C(=Cc1ccc(-c2nc(-c3ccccc3)no2)cc1)c1ccc(-c2nc3ccccn3n2)cc1,287
8,CCc1nc2c(-c3c(C)cc(C)cc3C)ncnc2n1Cc1ccccc1,121 to 122
9,CCCCNc1cncc(C(=NCCc2ccccc2Cl)NC#N)c1,122
10,Cc1cc2cc(CN3CCCC3)cnc2cc1NC(=O)c1ccc(-c2ccc(F)cc2)cc1F,174 to 177
11,Oc1ccccc1CNCCCCCCCCCCCCNCc1ccccc1O,72 to 73
12,O=c1[nH]ncc2[nH]c(-c3ccc(OC(F)F)c(OC4CC4)c3)c(-c3cn[nH]c3)c12,294 to 297
13,COC=C(c1cccnc1)C(C)c1ccc(Cl)cc1Cl (centres undefined),67 to 68
14,CCOP(=O)(OCC)C(OS(=O)(=O)c1ccc(C)cc1)c1cccc([N+](=O)[O-])c1 (centres undefined),90 to 92
15,COc1ccc(C(CN(C)C)C2CCCCC2O)cc1 (centres undefined),77 to 79
16,O=C1C=C(COCc2ccccc2)N=CC1OCc1ccccc1 (centres undefined),103 to 131
17,COC(=O)C(Oc1ccc2c(c1)CCC2)c1ccc(OCCCOc2ccc(Cl)cc2)cc1 (centres undefined),60 to 62
18,NS(=O)(=O)c1cccc2nonc12,157 to 159
19,CCOC(=O)c1cc2c(Cl)c(OC)c(OC)cc2s1,124 to 126
20,O=C(CNC(=O)C(Cc1ccccc1)C(=O)NOCc1ccccc1)OCc1ccccc1 (centres undefined),70
21,CC(C)Cc1c(C(=O)O)c(C(F)F)nc(C(F)(F)F)c1C(C#N)=C1CCCO1,192 to 193
22,COc1ccccc1NC(=O)Nc1nc(Oc2ccc3ccccc3c2)nc(N(CCC(=O)O)Cc2ccccc2C(F)(F)F)n1,232 to 233
23,CC(OC1(c2ccccc2F)NOc2c(Cl)cccc21)C(=O)O (centres undefined),159 to 161
